Patent US9393308B2, “Micelle structure of nano preparation for diagnosis or treatment of cancer disease and preparation method thereof” (KOREA ADVANCED INSTITUTE OF SCIENCE AND TECHNOLOGY, priority 2013, dated 2016)

Tests used:
[1] = system: U251MG, which is a human malignant glioma cell; experiment: Light induced cytotoxicity by light irradiation (590 to 605 nm, 0.1 J/cm^2); format: cell-based; details: light 590 to 605 nm, 5 mW/cm^2, 0.1 J/cm^2, 12 hours culture
Description: 1×10^4 cell/well of U251MG, which is a human malignant glioma cell, were dispensed into a 96-well plate, and a DMEM/F12 medium (100 μL) was injected four times for each sample. 24 hours after culture, the medium was replaced with media respectively including the nanopreparations prepared in Example 1 and Comparative Examples 2 and 3 (sample treatment group) and a medium without the nanopreparation (non-treatment group). The samples were cultured at the dark room condition for 2 hours, washed with phosphate buffered saline (PBS). Then, media was replaced again with media without the nanopreparation. Subsequently, 5 mW/cm^2 of lighting power of light (590 to 605 nm) was irradiated through a light irradiation system (LIS) so that total energy applied to each cell is adjusted to 0.1 J/cm^2 to perform photodynamic diagnosis (photodynamic therapy). Each cell was cultured for 12 hours at the light irradiation condition. The cultured cell was subjected to the same method as Experimental Example 3 to measure light-cytotoxicity. Light induced cytotoxicity and light induced cytotoxicity efficiency were derived from the measured values by using Equations 1 and 2.

[2] = system: U251MG, which is a human malignant glioma cell; experiment: Cytotoxicity when light is not irradiated (WST-1, dark room condition); format: cell-based; details: 10 μM or less, 2 h treatment, 24 h additional culture
Description: In order to evaluate cytotoxicity, U251MG, which is a human malignant glioma cell, was obtained from American Type Culture Collection (ATCC, Manassas, Va., USA). The obtained cell was cultured in a Dulbecco's Modified Eagle's Medium including the nutrient mixture F-12, 10% fetal bovine serum, an antibiotic (penicillin (100 I.U./mL), and streptomycin (100 μg/mL)), and the 0.1 mM MEM non-essential amino acid solution under conditions of 37° C. and 5% carbon dioxide. 5×10^4 cell/well of the cultured cells were dispensed into a 24-well plate, and DMEM/F12 medium (1 mL) was injected four times for each sample. The medium was removed 24 hours after culture, and media respectively including nanopreparations prepared in Example 1 and Comparative Examples 2 and 3 in concentrations of 1.0, 2.5, 5.0, and 10 μM were injected. In this case, the volume of the nanopreparations included in the injected medium was set not to exceed 1.0% of the total volume of the medium. […] Then, absorbance of the culture medium was measured at the wavelength of 450 nm by using an absorbance microplate reader. In this case, the aforementioned whole procedure was performed at a dark room condition, and cell viability was derived from the measured normalized absorbance.

For Cc1cc(O)c2c(=O)c3c(O)cc(O)c4c5c(O)cc(O)c6c(=O)c7c(O)cc(C)c8c1c2c(c34)c(c78)c65 [Comparative Example 2, Hypericin], the “light toxicity (light induced cytotoxicity efficiency)” value [1] was 1.00±0.04 % mg/A.U. mL and the “toxicity to cells when light is not irradiated” value [2] was “do not have toxicity to cells”.
